Values joined by “and” are separate entries in the source; they are usually repeats but may differ in a detail not shown here. Equal entries are not always repeated.
Columns and labels:
Format in all cases: in vivo
Matricaria chamomilla = assay: greenhouse post-emergence treatment, MATCH; conditions: MATCH
How it was run: (§1)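 Foliar application to greenhouse-grown plants 3–15 cm tall in humus-containing loamy sand; response assessed on a 0–100 scale after 2–4 weeks, with Colby's E=X+Y−(X·Y/100) as the additive expectation.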

Polygonum convolvulus = assay: greenhouse pre-emergence treatment, POLCO; conditions: POLCO; for % activity, solo application: Table X1
How it was run: (§2)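 Damage rated on 0 to 100 scale (0 = normal growth, 100 = no emergence or total above-ground kill) after 2-4 weeks at species-dependent 10-25° C or 20-35° C. Seeds sown per species in loamy sand, ~3.0% humus, treated right after sowing with aqueous spray of single actives or 10% emulsion-concentrate mixtures, then hooded; additive expectation by Colby.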

Helianthus annuus = assay: greenhouse pre-emergence treatment, HELAN; conditions: HELAN
How it was run: as §2

Galium aparine = assay: greenhouse post-emergence treatment, GALAP; conditions: GALAP
How it was run: as §1

Apera spica-venti = assay: greenhouse pre-emergence treatment, APESV; conditions: solo, 20 DAT
How it was run: as §2

Papaver rhoeas = assay: greenhouse pre-emergence treatment, PAPRH; conditions: 20 DAT; for % activity, solo application: Table X6
How it was run: as §2

Avena fatua = assay: greenhouse pre-emergence treatment, AVEFA; conditions: 20 DAT, AVEFA
How it was run: as §2

[1] = Ex. 5 solo, 62.5 gai/ha, 20 DAT

O=C(O)c1nc(C2CC2)ncc1-c1ccccc1Cl [Ex. 5]
65%: % activity (Polygonum convolvulus; [1])
60%: % activity (Matricaria chamomilla; Ex. 5 solo, 250 gai/ha, 21 DAT) | % activity, solo application (Polygonum convolvulus; 62.5 gai/ha, 20 DAT) | % activity (Polygonum convolvulus; Table X10, 20 DAT, solo Ex. 5 31.25 gai/ha) | % activity (Polygonum convolvulus; Table X13, 20 DAT, solo Ex. 5 31.25 gai/ha) | % activity (Polygonum convolvulus; Table X14, 20 DAT, solo Ex. 5 31.25 gai/ha) | % activity (Helianthus annuus; Ex. 5 solo, 125 gai/ha, 20 DAT)
50%: % activity (Helianthus annuus; solo, 125 gai/ha, 21 DAT)
10%: % activity, solo application (Matricaria chamomilla; 125 gai/ha, 20 DAT, Table X5) | % activity, solo application (Matricaria chamomilla; 250 gai/ha, 20 DAT, Table X5) | % activity (Galium aparine; Ex. 5 solo, 31.25 gai/ha, 21 DAT)
35%: % activity (Polygonum convolvulus; solo, 31.25 gai/ha, 20 DAT) | % activity, solo application (Helianthus annuus; 62.5 gai/ha, 20 DAT, Table X1)
30%: % activity, solo application (Matricaria chamomilla; 62.5 gai/ha, 20 DAT, Table X3) | % activity, solo application (Matricaria chamomilla; 125 gai/ha, 20 DAT, Table X3) | % activity, solo application (Matricaria chamomilla; 125 gai/ha, 20 DAT, Table X7) | % activity (Matricaria chamomilla; Ex. 5 solo, 62.5 gai/ha, 21 DAT) | % activity (Matricaria chamomilla; Ex. 5 solo, 125 gai/ha, 21 DAT) | % activity (Matricaria chamomilla; 20 DAT, solo Ex. 5 250 gai/ha) | % activity (Matricaria chamomilla; 20 DAT, solo Ex. 5 250 gai/ha (Table X66)) | % activity (Matricaria chamomilla; 21 DAT, solo Ex. 5 125 gai/ha) | % activity (Matricaria chamomilla; solo Ex. 5 250 gai/ha, 21 DAT) | % activity, solo application (Galium aparine; 250 gai/ha, 20 DAT, Table X4) | % activity (Galium aparine; solo, 250 gai/ha, 20 DAT)
20%: % activity (Matricaria chamomilla; solo, 62.5 gai/ha, 20 DAT) | % activity (Galium aparine; Table X8, 20 DAT, solo Ex. 5 250 gai/ha) | % activity, solo application (Papaver rhoeas; 31.25 gai/ha)
85%: % activity (Polygonum convolvulus; solo, 125 gai/ha, 21 DAT) | % activity, solo application (Papaver rhoeas; 125 gai/ha)
70%: % activity, solo application (Matricaria chamomilla; 250 gai/ha, 20 DAT, Table X3) | % activity (Polygonum convolvulus; solo, 62.5 gai/ha, 21 DAT) | % activity (Papaver rhoeas; solo, 62.5 gai/ha)
0%: % activity, solo application (Helianthus annuus; 31.25 gai/ha, 20 DAT, Table X6) | % activity (Helianthus annuus; 20 DAT, solo Ex. 5 31.25 gai/ha) | % activity (Helianthus annuus; 20 DAT, solo Ex. 5 62.5 gai/ha) | % activity (Helianthus annuus; solo, 31.25 gai/ha, 20 DAT) | % activity (Helianthus annuus; solo, 62.5 gai/ha, 20 DAT) | % activity (Helianthus annuus; solo, 125 gai/ha, 20 DAT) | % activity, solo application (Galium aparine; 125 gai/ha, 20 DAT, Table X4) | % activity, solo application (Galium aparine; 125 gai/ha, 20 DAT, Table X5) | % activity, solo application (Galium aparine; 250 gai/ha, 20 DAT, Table X5) | % activity (Galium aparine; [1]) | % activity (Galium aparine; solo Ex. 5 62.5 gai/ha, 20 DAT) | % activity (Galium aparine; solo Ex. 5 125 gai/ha, 20 DAT) | % activity (Galium aparine; solo Ex. 5 125 gai/ha, 21 DAT) | % activity (Galium aparine; Table X12, 20 DAT, solo Ex. 5 62.5 gai/ha) | % activity (Galium aparine; Table X12, 20 DAT, solo Ex. 5 125 gai/ha) | % activity (Galium aparine; solo, 62.5 gai/ha, 20 DAT) | % activity (Galium aparine; solo, 125 gai/ha, 20 DAT) | % activity (Papaver rhoeas; solo Ex. 5 31.25 gai/ha)
10% and 0%: % activity (Matricaria chamomilla; solo Ex. 5 62.5 gai/ha, 20 DAT)
90%: % activity (Polygonum convolvulus; Table X13, 20 DAT, solo Ex. 5 250 gai/ha) | % activity, solo application (Avena fatua; 250 gai/ha, Table X1) | % activity (Avena fatua; solo Ex. 5 125 gai/ha)
25%: % activity (Galium aparine; Ex. 5 solo, 250 gai/ha, 21 DAT)
40% and 20%: % activity (Matricaria chamomilla; solo, 125 gai/ha, 20 DAT)
80%: % activity, solo application (Polygonum convolvulus; 125 gai/ha, 20 DAT) | % activity (Polygonum convolvulus; Table X10, 20 DAT, solo Ex. 5 125 gai/ha) | % activity (Helianthus annuus; solo, 250 gai/ha, 21 DAT) | % activity (Apera spica-venti; 125 gai/ha)
75%: % activity (Polygonum convolvulus; Table X13, 20 DAT, solo Ex. 5 62.5 gai/ha) | % activity (Apera spica-venti; 31.25 gai/ha) | % activity (Avena fatua; solo Ex. 5 62.5 gai/ha)
40% and 45%: % activity (Matricaria chamomilla; solo, 250 gai/ha, 20 DAT)
40%: % activity, solo application (Matricaria chamomilla; 125 gai/ha, 20 DAT, Table X4) | % activity, solo application (Matricaria chamomilla; 250 gai/ha, 20 DAT, Table X4) | % activity (Matricaria chamomilla; [1]) | % activity (Matricaria chamomilla; 20 DAT, solo Ex. 5 125 gai/ha) | % activity, solo application (Helianthus annuus; 125 gai/ha, 20 DAT, Table X2) | % activity, solo application (Helianthus annuus; 125 gai/ha, 20 DAT, Table X6)

From US10966426B2, “Herbicidal compositions comprising phenylpyrimidines” (BASF SE, priority 2016, dated 2021)
